Measurements reported in ChEMBL document CHEMBL1143337, “Novel boronated chlorin e6-based photosensitizers: synthesis, binding to albumin and antitumour efficacy” (Bioorg Med Chem, 2009).

How the values were obtained:
[1] = Antitumor activity against rat M1 cells implanted in rat assessed as increase in tumor volume coefficient followed by light illumination at 25 mg/kg, ip after 14 days relative to control; format: functional; conditions: route intraperitoneal
[2] = Antitumor activity against rat M1 cells implanted in rat assessed as increase in tumor volume coefficient followed by light illumination at 25 mg/kg, ip after 21 days relative to control; format: functional; conditions: route intraperitoneal
Albumin = Albumin (Homo sapiens, UniProt P02768); assay: Binding affinity to human serum albumin; format: ADME; conditions: isolated protein
[3] = Induction of necrosis in rat fibroblasts at 1 uM after 20 min post illumination to red light; format: cell-based; conditions: fibroblast

Albumin, sequence (P02768 whole entry): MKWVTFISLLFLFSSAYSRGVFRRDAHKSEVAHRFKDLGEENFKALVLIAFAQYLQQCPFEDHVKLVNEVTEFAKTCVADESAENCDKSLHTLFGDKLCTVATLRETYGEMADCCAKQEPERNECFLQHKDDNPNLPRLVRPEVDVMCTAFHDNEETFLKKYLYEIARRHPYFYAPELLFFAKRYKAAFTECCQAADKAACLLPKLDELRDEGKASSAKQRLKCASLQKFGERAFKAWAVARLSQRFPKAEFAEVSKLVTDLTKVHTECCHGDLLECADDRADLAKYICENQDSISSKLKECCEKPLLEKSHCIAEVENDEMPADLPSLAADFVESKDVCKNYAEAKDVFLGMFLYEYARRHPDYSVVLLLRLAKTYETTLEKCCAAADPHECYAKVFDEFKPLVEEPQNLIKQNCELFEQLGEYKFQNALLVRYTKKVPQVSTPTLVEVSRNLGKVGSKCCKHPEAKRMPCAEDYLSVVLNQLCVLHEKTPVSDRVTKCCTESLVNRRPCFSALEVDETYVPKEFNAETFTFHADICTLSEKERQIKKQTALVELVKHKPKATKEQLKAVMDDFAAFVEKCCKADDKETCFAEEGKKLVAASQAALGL

- Kb (Albumin): 2 ×10⁵ /M
SMILES: C=Cc1c(C)c2cc3nc(c(CC(=O)OC)c4[nH]c(cc5nc(cc1[nH]2)C(C)=C5CC)c(C)c4C(=O)NCCN)[C@@H](CCC(=O)OC)C3C (some centres undefined)
- fold change (FC) [1]: 6.6
- fold change (FC) [2]: 14.5
- Activity [3]: Toxic
